US9834542B2, “LXR modulators” (BRISTOL-MYERS SQUIBB COMPANY, priority 2013, dated 2017)

Molecular target: T1, LXRβ (Homo sapiens, UniProt P55055)
T1 construct: Co-transfection expression plasmids, comprising full-length LXRα (pCMX-h LXRα[…] or LXRβ (pCMX-hLXRβ)); expressed in transfected cells; host or cells: CV-1 African Green Monkey Kidney Cells
T1 sequence (P55055 1-460): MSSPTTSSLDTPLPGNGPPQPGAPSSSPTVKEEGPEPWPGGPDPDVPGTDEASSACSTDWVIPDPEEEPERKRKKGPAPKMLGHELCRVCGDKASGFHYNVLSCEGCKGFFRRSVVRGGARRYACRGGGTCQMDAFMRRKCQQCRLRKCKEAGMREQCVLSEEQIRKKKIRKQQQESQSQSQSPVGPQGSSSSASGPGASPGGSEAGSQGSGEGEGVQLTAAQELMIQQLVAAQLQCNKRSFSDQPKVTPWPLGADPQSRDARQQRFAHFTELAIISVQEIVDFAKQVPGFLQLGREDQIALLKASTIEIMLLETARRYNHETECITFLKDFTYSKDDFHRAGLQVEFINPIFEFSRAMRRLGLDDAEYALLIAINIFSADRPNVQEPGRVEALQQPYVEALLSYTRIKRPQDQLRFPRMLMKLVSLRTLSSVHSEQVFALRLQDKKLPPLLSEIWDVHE
T1 sequence (P19793 1-462 partner): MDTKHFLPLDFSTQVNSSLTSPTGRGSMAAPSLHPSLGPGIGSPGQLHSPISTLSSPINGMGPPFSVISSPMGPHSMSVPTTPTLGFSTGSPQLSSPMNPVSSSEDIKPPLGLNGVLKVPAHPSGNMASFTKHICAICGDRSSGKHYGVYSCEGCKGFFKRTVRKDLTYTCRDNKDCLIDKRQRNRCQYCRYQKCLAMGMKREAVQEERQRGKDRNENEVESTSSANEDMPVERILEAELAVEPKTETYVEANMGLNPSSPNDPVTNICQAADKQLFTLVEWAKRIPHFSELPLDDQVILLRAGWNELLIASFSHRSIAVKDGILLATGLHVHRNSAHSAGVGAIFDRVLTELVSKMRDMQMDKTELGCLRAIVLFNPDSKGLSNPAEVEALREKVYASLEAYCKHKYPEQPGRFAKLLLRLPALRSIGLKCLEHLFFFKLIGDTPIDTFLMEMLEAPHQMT
Assay: Co-transfection assay (LXRE luciferase reporter), LXRβ
Assay type: cell-based
Conditions: for EC50: CV-1 cells transfected with pCMX-hLXRβ and LXREx1-Tk-Luciferase, 20 hours incubation; for Emax: LXRβ co-transfection, relative to high control 1-(2,4-difluorobenzyl)-2-oxo-6-(4-phenoxyphenyl)-4-(trifluoromethyl)-1,2-dihydropyridine-3-carbonitrile, read-out: % Efficacy
Description: To measure the ability of compounds to activate or inhibit the transcriptional activity of LXR in a cell based assay, the co-transfection assay was used. It has been shown that LXR functions as a heterodimer with RXR. For the co-transfection assay, expression plasmids for LXRα and LXRβ are introduced separately via transient transfection into mammalian cells along with a luciferase reporter plasmid that contains one copy of a DNA sequence that is bound by LXR-RXR heterodimers (LXRE; Willy, P. et. al. 1995). LXRs heterodimerize with the endogenous RXR. Treatment of transfected cells with an LXR agonist increases the transcriptional activity of LXR, which is measured by an increase in luciferase activity.
CV-1 African Green Monkey Kidney Cells
Co-transfection expression plasmids, comprising full-length LXRα (pCMX-h LXRα[…] or LXRβ (pCMX-hLXRβ), reporter plasmid (LXREx1-Tk-Luciferase), and control (pCMX-Galactosidase expression vector) (Willey et al. Genes & Development 9 1033-1045 (1995)).
CV-1 cells were prepared 24 hours prior to the experiment by plating them into T-175 flasks or 500 cm^2 dishes in order to achieve 70-80% confluency on the day of the transfection. The number of cells to be transfected was determined by the number of plates to be screened. Each well of a 384 well plate requires 1.5×10^4 cells. DNA Transfection Reagent was prepared by mixing the required plasmid DNAs with a cationic lipid transfection reagent Transit 2020 (Mirus Bio) for CV1 by following the instructions provided with the reagents. Optimal DNA amounts were determined empirically per cell line and size of vessel to be transfected. For each T175 cm^2 flask a total of 59 ug for CV1 of DNA, 133 uL Transit2020 and 4.5 mL DMEM for CV1 was mixed and added. Cells were then incubated at least 5 hours at 37° C. to prepare screening cells.
Luciferase assay reagent (*Steady-Glo Luciferase Assay System by Promega, CAT#E2550) was prepared by combining before use:
Assay plates were prepared by dispensing 5 μL of compound per well of a 384 well plate to achieve final compound concentration of 10 μM and no more than 0.5% DMSO. Media was removed from the screening cells, the cells trypsinized, harvested cells by centrifugation, counted, and plated at a density of approximately 1.5×10^4 cells in the 384 well assay plate prepared above in a volume of about 95 uL. Assay plates containing both compounds and screening cells (100 μL in total volume) were incubated for 20 hours at 37° C.
After incubation with compounds, media was removed from the cells and luciferase assay reagent (50 μL/well) added. After ˜2 minutes at ambient temperature, the assay plates were read on a luminometer (PE Biosystems Northstar reader with on-board injectors, or Envision(Perkin Elmer) or equivalent).
The LXR/LXRE co-transfection assay can be used to establish the EC50/IC50 values for potency and percent activity or inhibition for efficacy. Efficacy defines the activity of a compound relative to a high control 1-(2,4-difluorobenzyl)-2-oxo-6-(4-phenoxyphenyl)-4-(trifluoromethyl)-1,2-dihydropyridine-3-carbonitrileor a low control (DMSO/vehicle). The dose response curves are generated from a 11 point curve with concentrations differing by ½ LOG units. Each point represents the average of 2 wells of data from duplicate 384 well plate.
The data from this assay is fitted to the following equation, from which the EC50 value may be solved: Y=Bottom+(Top−Bottom)/(1+10^((logEC50-X)*HillSlope)).
The EC50/IC50 is therefore defined as the concentration at which an agonist or antagonist elicits a response that is halfway between the Top (maximum) and Bottom (baseline) values. The EC50/IC50 values represented are the averages of at least 2 and normally 3 independent experiments. […]

`Cc1nc(C(F)(F)F)cn1-c1ccc(-c2cc(F)c(CO)c(S(C)(=O)=O)c2)cc1-c1nc(C2CC2)oc1-c1ccc2c(c1)OC(F)(F)O2` [Example 483] gave an EC50 of 40 nM and an Emax of 66%.
In the case of `Cc1nc(C(=O)C(C)C)cn1-c1ccc(-c2cccc(S(C)(=O)=O)c2)cc1-n1nncc1-c1ccc(OC(F)(F)F)cc1` [Example 234, 2-methyl-1-(2-methyl-1-(3′-(methylsulfonyl)-3-(5-(4-(trifluoromethoxy)phenyl)-1H-1,2,3-triazol-1-yl)-[1,1′-biphenyl]-4-yl)-1H-imidazol-4-yl)propan-1-one], the EC50 is reported as 1200 nM and the Emax is reported as 75%.
In the case of `Cc1nc(C(F)(F)F)cn1-c1ccc(-c2cc(F)c(CO)c(S(C)(=O)=O)c2)cc1-c1nc(C(F)(F)F)cn1-c1ccc(Cl)cc1` [Example 645, (3′-(1-(4-chlorophenyl)-4-(trifluotomethyl)-1H-imidazol-2-yl)-3-fluoro-4′-(2-methyl-4-(trifluoromethyl)-1H-imidazol-1-yl)-5-(methylsulfonyl)biphenyl-4-yl)methanol], the EC50 is reported as 144 nM and the Emax is reported as 32%.
In the case of `Cc1nc(C(F)(F)F)cn1-c1ccc(-c2cccc(S(C)(=O)=O)c2)cc1-n1nncc1-c1ccc(Cl)c(Cl)c1` [Example 75, 5-(3,4-dichlorophenyl)-1-{3′-(methylsulfonyl)-4-[2-methyl-4-(trifluoromethyl)-1H-imidazol-1-yl]biphenyl-3-yl}-1H-1,2,3-triazole], the EC50 is reported as 127 nM and the Emax is reported as 97%.
For `Cc1nc(C(F)(F)F)cn1-c1ccc(-c2cccc(S(C)(=O)=O)c2)cc1-n1nncc1Cc1cccc(OC(F)(F)F)c1` [Example 116, 1-{3′-(methylsulfonyl)-4-[2-methyl-4-(trifluoromethyl)-1H-imidazol-1-yl]biphenyl-3-yl}-5-({3-[(trifluoromethyl)oxy]phen-yl}methyl)-1H-1,2,3-triazole], the EC50 was 982 nM and the Emax was 59%.
Molecule `Cc1nc(-c2cc(-c3cccc(S(C)(=O)=O)c3)ccc2-n2cc(C(F)(F)F)nc2C)c(-c2ccc(F)cc2F)o1` [Example 453, 5-(2,4-difluorophenyl)-2-methyl-4-(4-(2-methyl-4-(trifluoromethyl)-1H-imidazol-1-yl)-3′-(methylsulfonyl)biphenyl-3-yl)oxazole] has an EC50 of 71 nM and an Emax of 43%.
Work on `Cc1nc(C(F)(F)F)cn1-c1ccc(-c2cccc(S(C)(=O)=O)c2)cc1-n1nncc1-c1ccc(CF)cc1` [Example 4, 5-[4-(fluoromethyl)phenyl]-1-{3′-(methylsulfonyl)-4-[2-methyl-4-(trifluoromethyl)-1H-imidazol-1-yl]biphenyl-3-yl}-1H-1,2,3-triazole] yielded an EC50 of 559 nM and an Emax of 89%.
`Cc1nc(C(F)(F)F)cn1-c1ccc(-c2cccc(S(C)(=O)=O)c2)cc1-c1nc(C(C)C)oc1-c1ccc2c(c1)OC(F)(F)O2` [Example 480, 5-(2,2-difluorobenzo[d][1,3]dioxol-5-yl)-2-isopropyl-4-(4-(2-methyl-4-(trifluoromethyl)-1H-imidazol-1-yl)-3′-(methylsulfonyl)biphenyl-3-yl)oxazole] gave an EC50 of 63 nM and an Emax of 74%.
`Cc1nc(C(F)(F)F)cn1-c1c(Cl)cc(-c2cc(F)c(CO)c(S(C)(=O)=O)c2)cc1-n1nncc1-c1ccc(OC(F)(F)F)cc1` [Example 196, [3′-chloro-3-fluoro-5-(methylsulfonyl)-4′-[2-methyl-4-(trifluoromethyl)-1H-imidazol-1-yl]-5′-(5-{4-[(trifluoromethyl)oxy]phenyl}-1H-1,2,3-triazol-1-yl)biphenyl-4-yl]methanol] gave an EC50 of 241 nM and an Emax of 68%.
Work on `Cc1nc(C(F)(F)F)cn1-c1ccc(-c2cccc(S(C)(=O)=O)c2)cc1-n1nncc1Cc1ccccc1Cl` [Example 219, 5-(2-chlorobenzyl)-1-(4-(2-methyl-4-(trifluoromethyl)-1H-imidazol-1-yl)-3′-(methylsulfonyl)-[1,1′-biphenyl]-3-yl)-1H-1,2,3-triazole] yielded an EC50 of 1520 nM and an Emax of 44%.
